According to ChEMBL document CHEMBL4699440, “Comprehensive review on the anti-bacterial activity of 1,2,3-triazole hybrids” (Eur J Med Chem, 2019):

Key:
Staphylococcus aureus [1] = assay: Antibacterial activity against Staphylococcus aureus ATCC 29737 incubated for 24 hrs; assay type: functional
[2] = tested on: Sphingomonas paucimobilis; assay: Antibacterial activity against Flavobacterium devorans ATCC 10829 incubated for 24 hrs; assay type: functional
Penicillium chrysogenum = assay: Antifungal activity against Penicillium chrysogenum NCIM 723 incubated for 48 hrs; assay type: functional
Curvularia lunata = assay: Antifungal activity against Curvularia lunata NCIM 1131 incubated for 48 hrs; assay type: functional
Bacillus cereus = assay: Antibacterial activity against Bacillus cereus ATCC 6630 incubated for 24 hrs; assay type: functional
Aspergillus niger = assay: Antifungal activity against Aspergillus niger NCIM 1196 incubated for 48 hrs; assay type: functional
Pseudomonas fluorescens = assay: Antibacterial activity against Pseudomonas fluorescens NCIM 2173 incubated for 24 hrs; assay type: functional
Micrococcus luteus = assay: Antibacterial activity against Micrococcus Luteus ATCC 398 incubated for 24 hrs; assay type: functional
Escherichia coli [3] = assay: Antibacterial activity against Escherichia coli NCIM 2256 incubated for 24 hrs; assay type: functional
Klebsiella pneumoniae [4] = assay: Antibacterial activity against Klebsiella pneumonia RCMB 010058 by broth dilution method; assay type: functional
Bacillus subtilis = assay: Antibacterial activity against Bacillus subtilis RCMB 010067 by broth dilution method; assay type: functional
Staphylococcus aureus [5] = assay: Antibacterial activity against Staphylococcus aureus RCMB 010025 by broth dilution method; assay type: functional
Pseudomonas aeruginosa [6] = assay: Antibacterial activity against Pseudomonas aeruginosa RCMB 010043 by broth dilution method; assay type: functional
Streptococcus pneumoniae = assay: Antibacterial activity against Streptococcus pneumoniae RCMB 010010 by broth dilution method; assay type: functional
Escherichia coli [7] = assay: Antibacterial activity against Escherichia coli RCMB 010052 by broth dilution method; assay type: functional
Streptococcus pyogenes = assay: Antibacterial activity against Streptococcus pyogenes ATCC 35552 incubated for 24 hrs by tube dilution method; assay type: functional
Pseudomonas aeruginosa [8] = assay: Antibacterial activity against Pseudomonas aeruginosa ATCC 12454 incubated for 24 hrs by tube dilution method; assay type: functional
Staphylococcus aureus [9] = assay: Antibacterial activity against Staphylococcus aureus ATCC 25923 incubated for 24 hrs by tube dilution method; assay type: functional
Klebsiella pneumoniae [10] = assay: Antibacterial activity against Klebsiella pneumoniae ATCC 15380 incubated for 24 hrs by tube dilution method; assay type: functional
Escherichia coli [11] = assay: Antibacterial activity against Escherichia coli ATCC 25922 incubated for 24 hrs by tube dilution method; assay type: functional
Escherichia coli [12] = assay: Antibacterial activity against Escherichia coli NIHJ JC2 incubated for 20 hrs by agar dilution method; assay type: functional
Staphylococcus aureus [13] = assay: Antibacterial activity against Staphylococcus aureus 209P JC1 incubated for 20 hrs by agar dilution method; assay type: functional
Pseudomonas aeruginosa [14] = assay: Antibacterial activity against Pseudomonas aeruginosa 12 incubated for 20 hrs by agar dilution method; assay type: functional
Pseudomonas aeruginosa [15] = assay: Antibacterial activity against Pseudomonas aeruginosa MTCC 2453 incubated overnight by broth dilution technique; assay type: functional, organism-based
Salmonella enterica = assay: Antibacterial activity against Salmonella enterica MTCC 3224 incubated overnight by broth dilution technique; assay type: functional, organism-based
Klebsiella pneumoniae [16] = assay: Antibacterial activity against Klebsiella pneumoniae ATCC 700603 incubated overnight by broth dilution technique; assay type: functional, organism-based
Enterococcus faecalis = assay: Antibacterial activity against Enterococcus faecalis MTCC 439 incubated overnight by broth dilution technique; assay type: functional, organism-based
Escherichia coli [17] = assay: Antibacterial activity against Escherichia coli ATCC 25922 incubated overnight by broth dilution technique; assay type: functional, organism-based

Cc1cc(OCc2cn(Cc3ccc([N+](=O)[O-])cc3)nn2)cc2oc(=O)ccc12
2 µg/mL: MIC (Staphylococcus aureus [1]) | MIC [2] | MIC (Penicillium chrysogenum) | MIC (Curvularia lunata) | MIC (Bacillus cereus) | MIC (Aspergillus niger) | MIC (Pseudomonas fluorescens) | MIC (Micrococcus luteus) | MIC (Escherichia coli [3])

OCC(O)CSc1nnc(-c2nnn(-c3ccccc3Cl)c2-c2nnc(SCC(O)CO)o2)o1 (stereo unspecified)
4 µg/mL: MIC (Klebsiella pneumoniae [4]) | MIC (Bacillus subtilis) | MIC (Staphylococcus aureus [5]) | MIC (Pseudomonas aeruginosa [6]) | MIC (Streptococcus pneumoniae) | MIC (Escherichia coli [7])

O=Cc1cn(-c2ccccc2)nc1-c1ccccc1OCc1cn(Cc2cccc(Cl)c2)nn1
5.5 µg/mL: MIC (Streptococcus pyogenes) | MIC (Pseudomonas aeruginosa [8]) | MIC (Staphylococcus aureus [9]) | MIC (Klebsiella pneumoniae [10]) | MIC (Escherichia coli [11])

Cc1cc(OCc2cn(Cc3ccc(Br)cc3)nn2)cc2oc(=O)ccc12
2 µg/mL: MIC (Staphylococcus aureus [1]) | MIC [2] | MIC (Penicillium chrysogenum) | MIC (Curvularia lunata) | MIC (Bacillus cereus) | MIC (Aspergillus niger) | MIC (Pseudomonas fluorescens) | MIC (Micrococcus luteus) | MIC (Escherichia coli [3])

Cc1cc(C)cc(Cn2cc(COc3ccccc3-c3nn(-c4ccccc4)cc3C=O)nn2)c1
5.5 µg/mL: MIC (Streptococcus pyogenes) | MIC (Pseudomonas aeruginosa [8]) | MIC (Staphylococcus aureus [9]) | MIC (Klebsiella pneumoniae [10]) | MIC (Escherichia coli [11])

C[C@@H]1CN(c2c(F)c(N)c3c(=O)c(C(=O)O)cn(C4CC4)c3c2F)C[C@H](C)N1 [SPARFLOXACIN]
0.0125 µg/mL: MIC (Escherichia coli [12]) | MIC (Staphylococcus aureus [13]) | MIC (Pseudomonas aeruginosa [14])

CC(=O)OCCSc1nnc(-c2nnn(-c3ccccc3Cl)c2-c2nnc(SCCOC(C)=O)o2)o1
31.2 µg/mL: MIC (Klebsiella pneumoniae [4]) | MIC (Bacillus subtilis) | MIC (Staphylococcus aureus [5]) | MIC (Pseudomonas aeruginosa [6]) | MIC (Streptococcus pneumoniae) | MIC (Escherichia coli [7])

CCOCCSc1nnc(-c2nnn(-c3ccccc3Cl)c2-c2nnc(SCCOCC)o2)o1
31.2 µg/mL: MIC (Klebsiella pneumoniae [4]) | MIC (Bacillus subtilis) | MIC (Staphylococcus aureus [5]) | MIC (Pseudomonas aeruginosa [6]) | MIC (Streptococcus pneumoniae) | MIC (Escherichia coli [7])

Cc1cc(OCc2cn(Cc3ccc(Cl)cc3)nn2)cc2oc(=O)ccc12
2 µg/mL: MIC (Staphylococcus aureus [1]) | MIC [2] | MIC (Penicillium chrysogenum) | MIC (Curvularia lunata) | MIC (Bacillus cereus) | MIC (Aspergillus niger) | MIC (Pseudomonas fluorescens) | MIC (Micrococcus luteus) | MIC (Escherichia coli [3])

O=c1cc(OCc2cn(Cc3ccc(Br)cc3)nn2)c2ccccc2o1
2 µg/mL: MIC (Staphylococcus aureus [1]) | MIC [2] | MIC (Penicillium chrysogenum) | MIC (Curvularia lunata) | MIC (Bacillus cereus) | MIC (Aspergillus niger) | MIC (Pseudomonas fluorescens) | MIC (Micrococcus luteus) | MIC (Escherichia coli [3])

OCCCSc1nnc(-c2nnn(-c3ccccc3Cl)c2-c2nnc(SCCCO)o2)o1
4 µg/mL: MIC (Klebsiella pneumoniae [4]) | MIC (Bacillus subtilis) | MIC (Staphylococcus aureus [5]) | MIC (Pseudomonas aeruginosa [6]) | MIC (Streptococcus pneumoniae) | MIC (Escherichia coli [7])

CC1CCN(c2c(F)c3c(c(=O)c(C(=O)O)cn3C3CC3)c3[nH]nnc23)CC1
0.05 µg/mL: MIC (Escherichia coli [12]) | MIC (Staphylococcus aureus [13]) | MIC (Pseudomonas aeruginosa [14])

O=c1cc(OCc2cn(Cc3ccc(Cl)cc3)nn2)c2ccccc2o1
2 µg/mL: MIC (Staphylococcus aureus [1]) | MIC [2] | MIC (Penicillium chrysogenum) | MIC (Curvularia lunata) | MIC (Bacillus cereus) | MIC (Aspergillus niger) | MIC (Pseudomonas fluorescens) | MIC (Micrococcus luteus) | MIC (Escherichia coli [3])

CC1CCN(c2cc3c(c(=O)c(C(=O)O)cn3C3CC3)c3[nH]nnc23)CC1
0.05 µg/mL: MIC (Escherichia coli [12]) | MIC (Staphylococcus aureus [13]) | MIC (Pseudomonas aeruginosa [14])

CCOCSc1nnc(-c2nnn(-c3ccccc3Cl)c2-c2nnc(SCOCC)o2)o1
31.2 µg/mL: MIC (Klebsiella pneumoniae [4]) | MIC (Bacillus subtilis) | MIC (Staphylococcus aureus [5]) | MIC (Pseudomonas aeruginosa [6]) | MIC (Streptococcus pneumoniae) | MIC (Escherichia coli [7])

Cc1cc(OCc2cn(Cc3ccccc3)nn2)cc2oc(=O)ccc12
2 µg/mL: MIC (Staphylococcus aureus [1]) | MIC [2] | MIC (Penicillium chrysogenum) | MIC (Curvularia lunata) | MIC (Bacillus cereus) | MIC (Aspergillus niger) | MIC (Pseudomonas fluorescens) | MIC (Micrococcus luteus) | MIC (Escherichia coli [3])

Cc1ccc(OCc2cn(Cc3ccccc3)nn2)c(-c2nn(-c3ccccc3)cc2C=O)c1
5.5 µg/mL: MIC (Streptococcus pyogenes) | MIC (Pseudomonas aeruginosa [8]) | MIC (Staphylococcus aureus [9]) | MIC (Klebsiella pneumoniae [10]) | MIC (Escherichia coli [11])

COc1ccc(-n2cc(COc3cccc4cccnc34)nn2)cc1
164 µg/mL: IC50 (Pseudomonas aeruginosa [15]) | IC50 (Salmonella enterica) | IC50 (Klebsiella pneumoniae [16]) | IC50 (Enterococcus faecalis) | IC50 (Escherichia coli [17])

CC1CCN(c2c(Cl)c3c(c(=O)c(C(=O)O)cn3C3CC3)c3[nH]nnc23)CC1
0.05 µg/mL: MIC (Escherichia coli [12]) | MIC (Staphylococcus aureus [13]) | MIC (Pseudomonas aeruginosa [14])
